From patent US9227971B2, “Pyrazolo[1,5-a]pyrimidine compounds as mTOR inhibitors” (Merck Sharp & Dohme Corp., priority 2010, dated 2016)

What was measured:
[1] = tested on: phosphorylated 4E-BP1 Thr37/46 (p4E-BP1 Thr37/46), mTORC1 activity, PC3 cells; assay: mTOR target engagement assay, immunofluorescent cell-based, p4E-BP1 Thr37/46 readout (mTORC1 activity); conditions: Homo sapiens, PC-3, PC3 cells, compound treatment ninety minutes at 37° C.; read-out: p4E-BP1 Thr37/46 IC50
How it was run: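 Cell-based immunofluorescence in PC3 cells: serially diluted compounds (0.25% DMSO, 5% FBS) applied for ninety minutes at 37° C before fixation and overnight 4° C staining of p4E-BP1 Thr37/46. Untreated DMSO wells set maximal phosphorylation; IC50 obtained by logistic fitting.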

[2] = tested on: phosphorylated AKT Ser473 (pAKT S473), mTORC2 activity, PC3 cells; assay: mTOR target engagement assay, immunofluorescent cell-based, pAKT S473 readout (mTORC2 activity); conditions: Homo sapiens, PC-3, PC3 cells, compound treatment ninety minutes at 37° C.
How it was run: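 After blocking, cells were stained overnight at 4 °C with anti-pAKT S473 antibody, then a fluorescent secondary; inhibition was read as reduced fluorescence intensity.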

Compound | IC50 [1] | IC50 [2]
CC(=O)c1c([C@@H]2C[C@H]3CC[C@@H](C2)N3C(=O)c2n[nH]c(N(C)C)n2)nc2c(-c3ccc(-c4ccccc4)nc3)cnn2c1N [Compound 1.1.139, 1-(7-amino-5-((1R,3s,5S)-8-(5-(dimethylamino)-1H-1,2,4-triazole-3-carbonyl)-8-azabicyclo[3.2.1]octan-3-yl)-3-(6-phenylpyridin-3-yl)pyrazolo[1,5-a]pyrimidin-6-yl)ethanone] | 1000 to 10000 nM | 1000 to 10000 nM
CC(=O)c1c([C@@H]2C[C@H]3CC[C@@H](C2)N3C(=O)c2n[nH]c(N)n2)nc2c(-c3ccc(-c4ccccc4)nc3)cnn2c1N [Compound 1.1.140, 1-(7-amino-5-((1R,3s,5S)-8-(5-amino-1H-1,2,4-triazole-3-carbonyl)-8-azabicyclo[3.2.1]octan-3-yl)-3-(6-phenylpyridin-3-yl)pyrazolo[1,5-a]pyrimidin-6-yl)ethanone] | 1 to 100 nM | 1 to 100 nM
CC(=O)c1c([C@@H]2C[C@H]3CC[C@@H](C2)N3C(=O)c2cn[nH]c2N)nc2c(-c3ccc(-c4ccccc4)nc3)cnn2c1N [Compound 1.1.141, 1-(7-amino-5-((1R,3s,5S)-8-(5-amino-1H-pyrazole-4-carbonyl)-8-azabicyclo[3.2.1]octan-3-yl)-3-(6-phenylpyridin-3-yl)pyrazolo[1,5-a]pyrimidin-6-yl)ethanone] | 1 to 100 nM | 1 to 100 nM
CC(=O)Nc1nc(C(=O)N2[C@@H]3CC[C@H]2C[C@H](c2nc4c(-c5ccc(-c6ccccc6)nc5)cnn4c(N)c2C(C)=O)C3)n[nH]1 [Compound 1.1.142, N-(3-((1R,3s,5S)-3-(6-acetyl-7-amino-3-(6-phenylpyridin-3-yl)pyrazolo[1,5-a]pyrimidin-5-yl)-8-azabicyclo[3.2.1]octane-8-carbonyl)-1H-1,2,4-triazol-5-yl)acetamide] | 100 to 1000 nM | 100 to 1000 nM
CC(=O)c1c([C@@H]2C[C@H]3CC[C@@H](C2)N3C(=O)c2nnc[nH]2)nc2c(-c3cnn(-c4ccccc4)c3)cnn2c1N [Compound 1.1.143, 1-(5-((1R,3s,5S)-8-(4H-1,2,4-triazole-3-carbonyl)-8-azabicyclo[3.2.1]octan-3-yl)-7-amino-3-(1-phenyl-1H-pyrazol-4-yl)pyrazolo[1,5-a]pyrimidin-6-yl)ethanone] | 1 to 100 nM | 1 to 100 nM
COc1ccc(-c2ccc(-c3cnn4c(N)c(C(C)=O)c([C@@H]5C[C@H]6CC[C@@H](C5)N6C(=O)c5nnc(N)[nH]5)nc34)cn2)cc1F [Compound 1.1.144, 1-(7-amino-5-((1R,3s,5S)-8-(5-amino-4H-1,2,4-triazole-3-carbonyl)-8-azabicyclo[3.2.1]octan-3-yl)-3-(6-(3-fluoro-4-methoxyphenyl)pyridin-3-yl)pyrazolo[1,5-a]pyrimidin-6-yl)ethanone] | 1 to 100 nM | 1 to 100 nM
CC(=O)c1c([C@@H]2C[C@H]3CC[C@@H](C2)N3C(=O)c2nnc[nH]2)nc2c(-c3ccc(-c4ccccc4F)nc3)cnn2c1N [Compound 1.1.145, 1-(5-((1R,3s,5S)-8-(4H-1,2,4-triazole-3-carbonyl)-8-azabicyclo[3.2.1]octan-3-yl)-7-amino-3-(6-(2-fluorophenyl)pyridin-3-yl)pyrazolo[1,5-a]pyrimidin-6-yl)ethanone] | 1 to 100 nM | 1 to 100 nM
CC(=O)c1c([C@@H]2C[C@H]3CC[C@@H](C2)N3C(=O)c2nnc[nH]2)nc2c(-c3ccc(-c4ccccn4)nc3)cnn2c1N [Compound 1.1.146, 1-(3-(2,2′-bipyridin-5-yl)-5-((1R,3s,5S)-8-(4H-1,2,4-triazole-3-carbonyl)-8-azabicyclo[3.2.1]octan-3-yl)-7-aminopyrazolo[1,5-a]pyrimidin-6-yl)ethanone] | 1 to 100 nM | 1 to 100 nM
CC(=O)c1c([C@@H]2C[C@H]3CC[C@@H](C2)N3C(=O)c2nnc[nH]2)nc2c(-c3ccc(-c4c(F)cccc4F)nc3)cnn2c1N [Compound 1.1.147, 1-(5-((1R,3s,5S)-8-(4H-1,2,4-triazole-3-carbonyl)-8-azabicyclo[3.2.1]octan-3-yl)-7-amino-3-(6-(2,6-difluorophenyl)pyridin-3-yl)pyrazolo[1,5-a]pyrimidin-6-yl)ethanone] | 1 to 100 nM | 1 to 100 nM
CC(=O)c1c([C@@H]2C[C@H]3CC[C@@H](C2)N3C(=O)c2nnc[nH]2)nc2c(-c3ccc(-c4ccc(F)cc4F)nc3)cnn2c1N [Compound 1.1.148, 1-(5-((1R,3s,5S)-8-(4H-1,2,4-triazole-3-carbonyl)-8-azabicyclo[3.2.1]octan-3-yl)-7-amino-3-(6-(2,4-difluorophenyl)pyridin-3-yl)pyrazolo[1,5-a]pyrimidin-6-yl)ethanone] | 1 to 100 nM | 1 to 100 nM
CC(=O)c1c([C@@H]2C[C@H]3CC[C@@H](C2)N3C(=O)c2nnc[nH]2)nc2c(-c3ccc(-c4cnn(C)c4)nc3)cnn2c1N [Compound 1.1.149, 1-(5-((1R,3s,5S)-8-(4H-1,2,4-triazole-3-carbonyl)-8-azabicyclo[3.2.1]octan-3-yl)-7-amino-3-(6-(1-methyl-1H-pyrazol-4-yl)pyridin-3-yl)pyrazolo[1,5-a]pyrimidin-6-yl)ethanone] | 1 to 100 nM | 1 to 100 nM
CC(=O)c1c([C@@H]2C[C@H]3CC[C@@H](C2)N3C(=O)c2nnc[nH]2)nc2c(-c3cnn(C)c3)cnn2c1N [Compound 1.1.151, 1-(5-((1R,3s,5S)-8-(4H-1,2,4-triazole-3-carbonyl)-8-azabicyclo[3.2.1]octan-3-yl)-7-amino-3-(1-methyl-1H-pyrazol-4-yl)pyrazolo[1,5-a]pyrimidin-6-yl)ethanone] | 100 to 1000 nM | 100 to 1000 nM
CC(=O)c1c([C@@H]2C[C@H]3CC[C@@H](C2)N3C(=O)c2nnc[nH]2)nc2c(-c3cnn(CCO)c3)cnn2c1N [Compound 1.1.155, 1-(5-((1R,3s,5S)-8-(4H-1,2,4-triazole-3-carbonyl)-8-azabicyclo[3.2.1]octan-3-yl)-7-amino-3-(1-(2-hydroxyethyl)-1H-pyrazol-4-yl)pyrazolo[1,5-a]pyrimidin-6-yl)ethanone] | 1000 to 10000 nM | 1000 to 10000 nM
CC(=O)c1c([C@@H]2C[C@H]3CC[C@@H](C2)N3C(=O)c2cc(N)n[nH]2)nc2c(-c3ccc(-c4ccc(F)cc4)nc3)cnn2c1N [Compound 1.1.156, 1-(7-amino-5-((1R,3s,5S)-8-(3-amino-1H-pyrazole-5-carbonyl)-8-azabicyclo[3.2.1]octan-3-yl)-3-(6-(4-fluorophenyl)pyridin-3-yl)pyrazolo[1,5-a]pyrimidin-6-yl)ethanone] | 1 to 100 nM | 1 to 100 nM
CC(=O)c1c([C@@H]2C[C@H]3CC[C@@H](C2)N3C(=O)CO)nc2c(-c3ccc(-c4ccc(F)cc4)nc3)cnn2c1N [Compound 1.1.159, 1-((1R,3s,5S)-3-(6-acetyl-7-amino-3-(6-(4-fluorophenyl)pyridin-3-yl)pyrazolo[1,5-a]pyrimidin-5-yl)-8-azabicyclo[3.2.1]octan-8-yl)-2-hydroxyethanone] | 100 to 1000 nM | 100 to 1000 nM
CC(=O)c1c([C@@H]2C[C@H]3CC[C@@H](C2)N3C(=O)c2nnc(C)[nH]2)nc2c(-c3ccc(-c4ccc(F)cc4)nc3)cnn2c1N [Compound 1.1.160, 1-(7-amino-3-(6-(4-fluorophenyl)pyridin-3-yl)-5-((1R,3s,5S)-8-(5-methyl-4H-1,2,4-triazole-3-carbonyl)-8-azabicyclo[3.2.1]octan-3-yl)pyrazolo[1,5-a]pyrimidin-6-yl)ethanone] | 100 to 1000 nM | 1 to 100 nM
